Data on 23 molecules can be found in patent publication US20250228835A1, “PYRIDINYLOXYPYRIDINES AND RELATED COMPOUNDS AND THEIR USE IN TREATING MEDICAL CONDITIONS” (Rectify Pharmaceuticals, Inc., priority 2024, published 2025).

Common to all, as to type: cell-based
For one test, the target named is T1, ABCB4 WT (Homo sapiens, UniProt P21439).
T1 construct: expressed in transfected cells
Nature of the test: ABCB4 WT assay: HiBit protein expression. The note with it: HEK-293 cells stably expressing HiBit-tagged ABCB4 WT; 24 h treatment; top concentration 30 μM; read-out: ABCB4 WT EC50, Emax. The source says: To assess activity against ABCB4, compounds were screened in an assay measuring protein expression, using cells transfected with cDNA encoding HiBit-tagged ABCB4 wild-type.
(§1) Described here is an assay for measuring the expression of the wild type of human ABCB4 (henceforth referred to as ABCB4 WT) and the use of this assay to measure the efficacy of compounds to increase the expression of ABCB4 WT. The assay was designed to characterize the efficacy and potency of compounds to increase the expression of ABCB4 WT by calculating an Emax and EC50 value. HEK-293 cells stably expressing ABCB4 WT (HEK-293/ABCB4 WT) were used for this assay and were maintained at 37° C. (5% CO2, humidified) in Dulbecco's Modified Eagle Medium (DMEM, Gibco product #12100) supplemented with 10% fetal bovine serum (Biosera product #FB-1058/500), 1% PenStrep (HDB product #15140-122), and 0.5 mg/mL puromycin (Gibco product #A11138-03). For the assay, the HEK-293/ABCB4 WT cells were seeded in white/opaque 384-well plates (Corning product #3570) at 10,000 cells/well in 20 μl growth medium and allowed to settle for 4 hours at 37° C. (5% CO2, humidified). Compound serial dilutions are prepared in DMSO as three hundred times (333×) the final concentration and using a dilution factor of 3 using Bravo (Agilent). After the four-hour incubation period, 60 nL of DMSO solutions are transferred to the assay plate.
(§2) Dose response curves include eleven doses with the top final concentration at 30 μM in 0.3% DMSO. Liquid handling is performed with ECHO 550 Acoustic Liquid Handler (Labcyte). After addition of compound treatment, cells are incubated for 24 hours at 37° C. (5% CO2, humidified). After the 24-hour treatment, plates are allowed to equilibrate to room temperature for 10 minutes. Using Dragonfly Automated Liquid Handler (TTP LabTech), 20 μl of HiBit lytic assay reagent (Promega, product #N3040), which is prepared according to manufacturer's instructions, is added to each well. The plates are rotated at room temperature for 2 minutes and incubated for 1 hour at 25° C. before luminescent signal is acquired using an EnVision Multimode Plate Reader (PerkinElmer).
Results are presented below in Table 5 for ABCB4 WT.
Background: The HiBiT peptide binds its large partner to form an active luciferase.

A further test concerns the target T2, ABCA4 P1380L (Homo sapiens, UniProt P78363, P1380L).
T2 construct: expressed in transfected cells
Nature of the test: A4 correction dose-response assay: ABCA4 P1380L HiBit protein expression. The following applies: HEK-293 cells stably expressing HiBit-tagged ABCA4 P1380L; 24 h treatment; top concentration 30 μM; read-out: ABCA4 P1380L EC50, Emax. The procedure: Exemplary compounds were evaluated in an A4 correction dose-response assay.
To assess activity against ABCA4 P1380L, the compounds were screened in an assay measuring protein expression, using cells transfected with cDNA encoding HiBit-tagged ABCA4 P1380L. Here we describe an assay for measuring the expression of the P1380L variant of human ABCA4 (henceforth referred to as ABCA4 P1380L) and the use of this assay to measure the efficacy of compounds to increase the expression of ABCA4 P1380L. The assay was designed to characterize the efficacy and potency of compounds to increase the expression of ABCA4 P1380L by calculating an Emax and EC50 value. […] (5% CO2, humidified). […] After the four-hour incubation period, 60 nL of DMSO solutions are transferred to the assay plate.
as §2

In the next test the target is T3, ABCD2 WT (Homo sapiens, UniProt Q9UBJ2).
T3 construct: expressed in transfected cells
T3 sequence (Q9UBJ2 1-740): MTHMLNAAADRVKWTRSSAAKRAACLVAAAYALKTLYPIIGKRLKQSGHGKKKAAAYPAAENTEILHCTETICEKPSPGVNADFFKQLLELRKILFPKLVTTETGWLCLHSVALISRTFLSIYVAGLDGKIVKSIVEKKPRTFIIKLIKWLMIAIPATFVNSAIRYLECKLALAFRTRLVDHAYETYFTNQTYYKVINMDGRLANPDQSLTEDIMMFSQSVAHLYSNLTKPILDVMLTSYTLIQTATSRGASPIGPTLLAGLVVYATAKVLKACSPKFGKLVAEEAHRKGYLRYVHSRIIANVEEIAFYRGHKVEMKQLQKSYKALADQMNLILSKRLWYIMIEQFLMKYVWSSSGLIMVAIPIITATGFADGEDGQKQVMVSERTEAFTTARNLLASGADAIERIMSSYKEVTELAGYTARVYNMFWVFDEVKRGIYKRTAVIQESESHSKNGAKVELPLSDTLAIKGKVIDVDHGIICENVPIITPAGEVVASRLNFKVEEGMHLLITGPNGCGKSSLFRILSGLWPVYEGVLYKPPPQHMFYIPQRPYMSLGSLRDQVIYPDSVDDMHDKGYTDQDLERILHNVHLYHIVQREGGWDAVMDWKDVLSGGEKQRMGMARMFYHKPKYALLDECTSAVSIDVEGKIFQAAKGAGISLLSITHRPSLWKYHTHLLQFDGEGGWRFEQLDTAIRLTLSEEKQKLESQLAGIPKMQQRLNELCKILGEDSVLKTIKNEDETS
Nature of the test: D2 correction dose-response assay: ABCD2 WT HiBit protein expression. The note with it: HEK-293/ABCD2 WT cells, 24 hours treatment, HiBit luminescence; class combines EC50 and Mean MaxAct (fold); read-out: ABCD2 WT EC50, Emax. The protocol: Exemplary compounds were evaluated in a D2 correction dose-response assay.
as §1, with “To assess activity against ABCD2, the compounds were screened in an assay measuring protein expression, using cells transfected with cDNA encoding HiBit-tagged ABCD2 wild-type. Here we describe” for “Described here is”, “ABCD2” for “ABCB4”, “(HEK-293/ABCD2” for “(HEK-293/ABCB4”, “HEK-293/ABCD2” for “HEK-293/ABCB4”
as §2

T2 sequence (P78363 whole entry P1380L): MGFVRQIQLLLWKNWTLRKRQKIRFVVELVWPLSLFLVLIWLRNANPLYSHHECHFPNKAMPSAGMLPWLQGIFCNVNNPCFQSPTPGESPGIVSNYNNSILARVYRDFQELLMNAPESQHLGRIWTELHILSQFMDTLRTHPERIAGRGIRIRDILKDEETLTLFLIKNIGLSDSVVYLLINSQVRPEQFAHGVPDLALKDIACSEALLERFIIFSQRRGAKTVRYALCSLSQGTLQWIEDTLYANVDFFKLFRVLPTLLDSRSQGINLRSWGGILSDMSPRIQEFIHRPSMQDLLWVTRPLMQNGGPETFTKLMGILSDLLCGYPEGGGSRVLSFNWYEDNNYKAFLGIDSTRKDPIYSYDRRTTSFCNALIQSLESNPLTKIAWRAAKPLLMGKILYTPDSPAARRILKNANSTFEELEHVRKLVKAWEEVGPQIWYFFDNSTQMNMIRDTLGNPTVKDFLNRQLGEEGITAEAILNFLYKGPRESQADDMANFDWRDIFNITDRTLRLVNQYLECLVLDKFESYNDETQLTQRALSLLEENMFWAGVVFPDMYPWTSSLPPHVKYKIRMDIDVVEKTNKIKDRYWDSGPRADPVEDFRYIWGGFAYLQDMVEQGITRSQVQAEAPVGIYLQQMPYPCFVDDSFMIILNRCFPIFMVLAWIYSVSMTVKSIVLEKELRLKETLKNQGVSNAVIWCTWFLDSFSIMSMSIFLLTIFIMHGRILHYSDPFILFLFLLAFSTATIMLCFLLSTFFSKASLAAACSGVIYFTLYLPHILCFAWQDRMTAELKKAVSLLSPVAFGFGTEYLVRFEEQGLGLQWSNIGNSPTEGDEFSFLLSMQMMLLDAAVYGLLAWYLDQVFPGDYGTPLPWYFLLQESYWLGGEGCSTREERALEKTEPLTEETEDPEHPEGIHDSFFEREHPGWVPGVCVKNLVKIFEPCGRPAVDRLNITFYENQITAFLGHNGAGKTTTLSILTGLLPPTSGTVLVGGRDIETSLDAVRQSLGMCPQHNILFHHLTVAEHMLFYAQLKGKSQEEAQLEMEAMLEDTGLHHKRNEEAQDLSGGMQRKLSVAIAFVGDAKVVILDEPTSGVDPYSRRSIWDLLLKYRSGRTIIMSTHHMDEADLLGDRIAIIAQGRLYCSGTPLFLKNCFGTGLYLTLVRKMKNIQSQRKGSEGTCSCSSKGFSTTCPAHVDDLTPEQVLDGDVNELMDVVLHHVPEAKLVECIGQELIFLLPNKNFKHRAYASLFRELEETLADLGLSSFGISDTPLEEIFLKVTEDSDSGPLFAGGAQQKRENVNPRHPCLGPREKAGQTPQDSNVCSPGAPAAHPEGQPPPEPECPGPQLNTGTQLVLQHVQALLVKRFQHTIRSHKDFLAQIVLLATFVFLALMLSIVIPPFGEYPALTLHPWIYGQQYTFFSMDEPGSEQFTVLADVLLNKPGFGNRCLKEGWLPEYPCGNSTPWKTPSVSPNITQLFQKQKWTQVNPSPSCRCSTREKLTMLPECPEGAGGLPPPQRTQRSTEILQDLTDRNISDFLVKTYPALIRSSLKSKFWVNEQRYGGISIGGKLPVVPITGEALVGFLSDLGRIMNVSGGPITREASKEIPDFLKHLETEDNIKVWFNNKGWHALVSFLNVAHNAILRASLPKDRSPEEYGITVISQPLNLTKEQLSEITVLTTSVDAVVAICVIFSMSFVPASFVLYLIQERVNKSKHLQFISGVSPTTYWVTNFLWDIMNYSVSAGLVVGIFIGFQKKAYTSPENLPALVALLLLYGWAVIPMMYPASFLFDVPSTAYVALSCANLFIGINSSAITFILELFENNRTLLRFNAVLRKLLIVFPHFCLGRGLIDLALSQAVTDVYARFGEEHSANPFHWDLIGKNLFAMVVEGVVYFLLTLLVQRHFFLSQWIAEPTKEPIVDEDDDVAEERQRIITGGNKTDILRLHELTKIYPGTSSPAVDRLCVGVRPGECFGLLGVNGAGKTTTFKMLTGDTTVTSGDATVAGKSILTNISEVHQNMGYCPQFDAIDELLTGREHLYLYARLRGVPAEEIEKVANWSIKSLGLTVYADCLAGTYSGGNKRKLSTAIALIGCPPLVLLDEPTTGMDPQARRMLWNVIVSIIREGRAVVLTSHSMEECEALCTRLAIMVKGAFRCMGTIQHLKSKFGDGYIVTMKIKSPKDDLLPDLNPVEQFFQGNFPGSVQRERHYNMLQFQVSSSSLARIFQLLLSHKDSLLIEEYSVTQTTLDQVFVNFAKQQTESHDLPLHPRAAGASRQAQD
T1 sequence (P21439 whole entry): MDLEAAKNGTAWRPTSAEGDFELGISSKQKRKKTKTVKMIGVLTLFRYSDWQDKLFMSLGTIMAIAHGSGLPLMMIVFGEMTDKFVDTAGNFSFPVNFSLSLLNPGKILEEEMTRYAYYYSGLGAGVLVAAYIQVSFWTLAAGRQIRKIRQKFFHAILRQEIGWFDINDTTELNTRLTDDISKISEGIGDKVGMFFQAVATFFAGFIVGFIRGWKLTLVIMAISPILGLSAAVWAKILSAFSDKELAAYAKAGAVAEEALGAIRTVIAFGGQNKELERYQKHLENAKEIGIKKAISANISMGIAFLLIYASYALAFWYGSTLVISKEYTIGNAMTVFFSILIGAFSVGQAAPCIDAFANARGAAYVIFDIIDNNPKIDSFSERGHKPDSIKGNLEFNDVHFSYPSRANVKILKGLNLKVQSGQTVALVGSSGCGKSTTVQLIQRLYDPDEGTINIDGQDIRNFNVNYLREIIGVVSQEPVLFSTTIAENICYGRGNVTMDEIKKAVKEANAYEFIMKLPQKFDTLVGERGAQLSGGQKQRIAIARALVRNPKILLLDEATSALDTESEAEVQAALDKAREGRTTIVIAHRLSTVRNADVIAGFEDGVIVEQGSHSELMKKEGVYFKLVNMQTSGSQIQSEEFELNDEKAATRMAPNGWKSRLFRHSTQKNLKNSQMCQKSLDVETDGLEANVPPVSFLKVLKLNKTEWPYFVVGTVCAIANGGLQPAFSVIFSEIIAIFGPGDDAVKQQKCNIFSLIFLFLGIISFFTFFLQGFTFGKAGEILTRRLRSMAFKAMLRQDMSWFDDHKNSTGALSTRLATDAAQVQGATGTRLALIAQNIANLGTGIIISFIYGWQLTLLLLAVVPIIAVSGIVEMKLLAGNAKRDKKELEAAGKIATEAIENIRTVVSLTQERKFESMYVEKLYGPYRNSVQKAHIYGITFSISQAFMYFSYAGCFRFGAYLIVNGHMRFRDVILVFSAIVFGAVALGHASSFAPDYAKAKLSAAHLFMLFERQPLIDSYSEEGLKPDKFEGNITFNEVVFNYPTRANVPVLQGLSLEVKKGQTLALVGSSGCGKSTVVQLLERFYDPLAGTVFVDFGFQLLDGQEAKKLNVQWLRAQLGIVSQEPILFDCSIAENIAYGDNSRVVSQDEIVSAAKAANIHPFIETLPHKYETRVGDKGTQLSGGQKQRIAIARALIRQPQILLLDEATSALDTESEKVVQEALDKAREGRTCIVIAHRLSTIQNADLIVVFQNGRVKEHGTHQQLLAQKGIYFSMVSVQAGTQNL

The term EC50 denotes the midpoint of the concentration-response curve. Take `Cc1cc(C(F)(F)F)nc(C2CC2)c1Oc1nc(-c2cncc(C#N)c2)ccc1NS(=O)(=O)C1CC1` [Compound I-140]: the EC50 at ABCB4 WT, on ABCA4 P1380L and on ABCD2 WT was less than 1000 nM in each case.

Regarding `Cc1cc(C(F)(F)F)nc(C2CC2)c1Oc1nc(-c2cncc(C#N)c2)ccc1NS(=O)(=O)C(C)C` [Compound I-141], the EC50 on ABCB4 WT, at ABCA4 P1380L and at ABCD2 WT was less than 1000 nM throughout.

For the molecule `Cc1nc(C(F)(F)F)nc(C2CC2)c1Oc1nc(-c2cncc(C#N)c2)ccc1N(C)S(C)(=O)=O` [Compound I-142], the EC50 at ABCB4 WT was no less than 25000 nM; on ABCA4 P1380L it was greater than 25000 nM; on ABCD2 WT, 1000 to 10000 nM.

For `Cc1nc(C2COC2)nc(C2CC2)c1Oc1nc(-c2cncc(C#N)c2)ccc1NS(C)(=O)=O` [Compound I-143], the EC50 on ABCB4 WT, at ABCA4 P1380L and at ABCD2 WT was less than 1000 nM throughout.

For the molecule `Cc1nc(C(F)F)nc(C2CC2)c1Oc1nc(-c2cncc(C#N)c2)ccc1NS(C)(=O)=O` [Compound I-144], the EC50 on ABCB4 WT was less than 1000 nM; on ABCA4 P1380L it was less than 1000 nM; at ABCD2 WT, greater than 25000 nM.

As to `Cc1nc(C(F)(F)F)nc(C2CC2)c1Oc1nc(-c2cncc(C#N)c2)ccc1NS(C)(=O)=O` [Compound I-145], the EC50 at ABCB4 WT, at ABCA4 P1380L and at ABCD2 WT was less than 1000 nM each time.

On to `Cc1cc(C2CC2)nc(C2CC2)c1Oc1nc(-c2cncc(C#N)c2)ccc1N(C)S(C)(=O)=O` [Compound I-146], for which the EC50 is no less than 25000 nM at ABCB4 WT, 1000 to 10000 nM on ABCA4 P1380L and 10000 to 25000 nM at ABCD2 WT.

On to `Cc1cc(C)c(Oc2nc(-c3cncc(C#N)c3)ccc2NS(=O)(=O)c2cccnc2)c(C2CC2)n1` [Compound I-147], for which the values for the EC50 at ABCB4 WT, on ABCA4 P1380L and at ABCD2 WT were less than 25000 nM, less than 1000 nM and less than 1000 nM, respectively.

On to `CCS(=O)(=O)N(C)c1ccc(-c2cncc(C#N)c2)nc1Oc1c(C)cc(C(F)(F)F)nc1C1CC1` [Compound I-148], for which the EC50 on ABCB4 WT, on ABCA4 P1380L and on ABCD2 WT was less than 1000 nM each time.

Take `Cc1nc(C(F)(F)F)nc(C2CC2)c1Oc1nc(-c2cncc(Cl)c2)ccc1N(C)S(C)(=O)=O` [Compound I-149]: the EC50 at ABCB4 WT is no less than 25000 nM; at ABCA4 P1380L, greater than 25000 nM; on ABCD2 WT, greater than 25000 nM.

In the case of `Cc1nc(C2CC2)nc(C2CC2)c1Oc1nc(-c2cncc(C#N)c2)ccc1NS(C)(=O)=O` [Compound I-150], the EC50 at ABCB4 WT, at ABCA4 P1380L and at ABCD2 WT was less than 1000 nM each time.

In the case of `Cc1nc(C(F)(F)F)nc(C2CC2)c1Oc1nc(-c2cncc(Cl)c2)ccc1NS(C)(=O)=O` [Compound I-151], the EC50 on ABCB4 WT, on ABCA4 P1380L and on ABCD2 WT was less than 1000 nM in each case.

Turning to `CCS(=O)(=O)Nc1ccc(-c2cncc(C#N)c2)nc1Oc1c(C)cc(C(F)(F)F)nc1C1CC1` [Compound I-152], the EC50 at ABCB4 WT, at ABCA4 P1380L and on ABCD2 WT was less than 1000 nM throughout.

As for `Cc1cc(C(F)(F)F)nc(C2CC2)c1Oc1nc(-c2cncc(Cl)c2)ccc1N(C)S(C)(=O)=O` [Compound I-153], the EC50 at ABCB4 WT is no less than 25000 nM; on ABCA4 P1380L, greater than 25000 nM; on ABCD2 WT, 1000 to 10000 nM.

Turning to `Cc1nc(C(F)(F)F)cc(C2CC2)c1Oc1nc(-c2cncc(C#N)c2)ccc1N(C)S(C)(=O)=O` [Compound I-154], the results for the EC50 on ABCB4 WT, at ABCA4 P1380L and on ABCD2 WT were less than 25000 nM, less than 25000 nM and greater than 25000 nM, respectively.

Turning to `Cc1nc(C(F)(F)F)cc(C2CC2)c1Oc1nc(-c2cncc(C#N)c2)ccc1NS(C)(=O)=O` [Compound I-155], the EC50 at ABCB4 WT was less than 1000 nM; at ABCA4 P1380L, less than 1000 nM; at ABCD2 WT it was greater than 25000 nM.

In the case of `Cc1cc(C(F)(F)F)nc(C2CC2)c1Oc1nc(-c2cncc(C#N)c2)ccc1N(C)S(C)(=O)=O` [Compound I-156], the results for the concentration giving a half-maximal response (EC50) on ABCB4 WT, at ABCA4 P1380L and at ABCD2 WT were no less than 25000 nM, less than 25000 nM and less than 1000 nM, respectively.

In the case of `Cc1nc(C)c(Oc2nc(-c3cncc(C#N)c3)ccc2N(C)S(C)(=O)=O)c(C2CC2)n1` [Compound I-157], the figures for the EC50 at ABCB4 WT, at ABCA4 P1380L and on ABCD2 WT were less than 25000 nM, greater than 25000 nM and 10000 to 25000 nM, respectively.

Regarding `Cc1cc(C(F)(F)F)nc(C2CC2)c1Oc1nc(-c2cncc(Cl)c2)ccc1NS(C)(=O)=O` [Compound I-158], the EC50 at ABCB4 WT, on ABCA4 P1380L and at ABCD2 WT was less than 1000 nM each time.

For `Cc1nc(N2CC(C#N)C2)nc(C)c1Oc1nc(-c2cncc(C#N)c2)ccc1NS(C)(=O)=O` [Compound I-159], the values for the EC50 at ABCB4 WT, at ABCA4 P1380L and on ABCD2 WT were less than 1000 nM, less than 25000 nM and less than 1000 nM, respectively.

As to `Cc1nc(N2CC3(COC3)C2)nc(C)c1Oc1nc(-c2cncc(C#N)c2)ccc1NS(C)(=O)=O` [Compound I-160], the EC50 at ABCB4 WT was less than 25000 nM; at ABCA4 P1380L, greater than 25000 nM; at ABCD2 WT, greater than 25000 nM.

`Cc1cc(C2CC2)nc(C2CC2)c1Oc1nc(-c2cncc(C#N)c2)ccc1NS(C)(=O)=O` [Compound I-161]: the EC50 at ABCB4 WT is less than 1000 nM; on ABCA4 P1380L, less than 1000 nM; on ABCD2 WT, greater than 25000 nM.

With `Cc1nc(C2CC2)cc(C2CC2)c1Oc1nc(-c2cncc(C#N)c2)ccc1NS(C)(=O)=O` [Compound I-162], the EC50 at ABCB4 WT was no less than 25000 nM; at ABCA4 P1380L, less than 1000 nM; on ABCD2 WT it was greater than 25000 nM.
